These are literature values, as cited in patent US9345733B1, “Supplement composition for supporting telomere maintenance and protection and method of use” (CELLHEALTH TECHNOLOGIES LTD., priority 2011, dated 2016).

Structures are written as SMILES. Where two headings read alike, the source gives them in different places.

Data set [1] deals with endothelial nitric oxide synthase. The conditions noted are these: human aortic endothelial cells.
In data set [2] the test system is endothelial progenitor cells.
Data set [3] concerns the target TNF-a (Homo sapiens, UniProt P01375).
Data set [4] concerns IL-23p19, IFN-y, TNF-a, IL-6, MCP-1. The note with it: ileum of treated animals.
The test system of data set [5] is chronic colonic inflammation. The conditions noted are these: mice, dietary supplementation; reductions of TNF-a and IL-1β, increase of IL-10.
Data set [6] deals with human peripheral blood mononuclear cells. The conditions noted are these: stimulated human peripheral blood mononuclear cells in vitro.
The test system of data set [7] is endothelial progenitor cells. The note with it: in culture.
Another data set deals with NF-κB and TNF-a. The note with it: peripheral blood mononuclear cells of asthma patients, in-vitro.
Data set [8] concerns diseased endothelial cells. The conditions noted are these: chronic exposure; via activation of hTERT and transient telomere stabilization.
Data set [9] concerns TNF-a. The note with it: hypertensive rats.
The test system of a further data set is alveolar macrophages. The note with it: alveolar macrophages in idiopathic pulmonary fibrosis in vitro.
In data set [10] the test system is endothelial nitric oxide synthase. The conditions noted are these: HUVEC, at nanomolar concentrations.
Data set [11] relates to vascular smooth muscle cells. The note with it: stimulated by tumor necrosis factor-alpha.
For data set [12], the system named is human arterial smooth muscle cells (HASMCs).

Sequence of TNF-a (Homo sapiens, UniProt P01375) (P01375 77-233 limits assumed, species assumed): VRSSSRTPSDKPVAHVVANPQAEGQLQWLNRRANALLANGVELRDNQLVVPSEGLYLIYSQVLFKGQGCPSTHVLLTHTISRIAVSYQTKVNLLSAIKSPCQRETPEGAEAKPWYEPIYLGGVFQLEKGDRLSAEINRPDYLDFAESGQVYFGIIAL

As to `CC(C)=CCC[C@](C)(O[C@@H]1O[C@H](CO[C@@H]2O[C@H](CO)[C@@H](O)[C@H](O)[C@H]2O)[C@@H](O)[C@H](O)[C@H]1O)[C@H]1CC[C@]2(C)[C@@H]1[C@H](O)C[C@@H]1[C@@]3(C)CC[C@H](O[C@@H]4O[C@H](CO)[C@@H](O)[C@H](O)[C@H]4O[C@@H]4O[C@H](CO)[C@@H](O)[C@H](O)[C@H]4O)C(C)(C)[C@@H]3CC[C@]12C` [ginsenoside Rb1], the “endothelial nitric oxide synthase-Ser1177 phosphorylation and nitric oxide production” value in [1] was “acutely induces”.

On to `Oc1ccc(C=Cc2cc(O)cc(O)c2)cc1` [resveratrol, Resveratrol], for which, in data set [2], the “onset of endothelial progenitor cells senescence” value is listed as “delayed the onset”. Further, the telomerase result in [2] (through the PI3K-Akt signalling pathway) is on record as “activation of telomerase”. Further, the “TNF-a induced changes of adipokines” value at TNF-a [3] was “inhibits”. Besides, in [4], the “pro-inflammatory cytokine expression (IL-23p19, IFN-y, TNF-a, IL-6, MCP-1)” value is “significantly lower”. The chronic colonic inflammation result in data set [5] is on record as “attenuates”. In addition, the homocysteine formation result in data set [6] is given as “suppresses”.

`O=c1c(-c2ccc(O)cc2)coc2c([C@@H]3O[C@H](CO)[C@@H](O)[C@H](O)[C@H]3O)c(O)ccc12` [puerarin, Puerarin]: in data set [7], the “onset of endothelial progenitor cells senescence” value is recorded as “dose dependently prevents” and the “proliferation of endothelial progenitor cells” value is recorded as “increases”. Further, the “pathway of NF-κB and TNF-a” value in the data set on NF-κB and TNF-a was “could inhibit”.

As for `CC(=O)N[C@@H](CS)C(=O)O` [N-acetylcysteine], the “senescence of diseased endothelial cells” value in data set [8] is given as “can delay senescence”. For the same molecule, the “deleterious effect of TNF-a on calcium transients and contraction” value with adult rat cardiomyocytes was “prevents”. For the same molecule, in the data set on TNF-a [9], the “progression of cardiac injury” value is recorded as “hinders” and the “serum TNF-a level” value is on record as “normalizes”. In the data set with alveolar macrophages, the “TNF-a, sTNFR, and TGF-beta1 release” value is recorded as “inhibits”.

`CC(C)=CCC[C@](C)(O[C@@H]1O[C@H](CO)[C@@H](O)[C@H](O)[C@H]1O)[C@H]1CC[C@]2(C)[C@@H]1[C@H](O)C[C@@H]1[C@@]3(C)CC[C@H](O)C(C)(C)[C@@H]3[C@@H](O[C@@H]3O[C@H](CO)[C@@H](O)[C@H](O)[C@H]3O)C[C@]12C` [ginsenoside Rg1]: the “endothelial nitric oxide synthase phosphorylation via Akt” value in [10] is on record as “induces”. For the same molecule, the “proliferation of vascular smooth muscle cells” value in data set [11] was “inhibits”. The “TNF-a-induced HASMCs proliferation” value in data set [12] was “inhibits”.
